Data published in patent publication US11066396B2 (priority 2016, dated 2021).

How the values were obtained:
HDAC5 = HDAC5 (Homo sapiens (Human), UniProt Q9UQL6); details: read-out: HDAC5 IC50
HDAC1 = HDAC1 (Homo sapiens (Human), UniProt Q13547); details: read-out: HDAC1 IC50
Experimental: Assay protocol: In brief, compounds were titrated in 100% DMSO via accoustic dispensing directly to the assay plate using the ECHO 550 [Labcyte]. HDAC enzymes at the concentrations indicated above were added in assay buffer to the assay plates containing the compounds using a Combi [Thermo Scientific]. The wells were mixed, and the plates were allowed to pre-incubate at ambient temperature for 3 h. After the 3 h, the appropriate substrate, at the concentrations indicated above, was added to the wells using a Combi. The wells were mixed, and the plates were allowed to incubate at ambient temperature for 1 h. After the 1 h, the appropriate Developer/stop solution was added to the wells using a Combi. The wells were mixed, and the plates were allowed to incubate at ambient temperature for 1 h. […] Data were analyzed using 4P curve fitting with Activity Base [IDBS] software.

HDAC8 = HDAC8 (Homo sapiens (Human), UniProt Q9BY41); details: read-out: HDAC8 IC50
HDAC8, sequence (Q9BY41 whole entry): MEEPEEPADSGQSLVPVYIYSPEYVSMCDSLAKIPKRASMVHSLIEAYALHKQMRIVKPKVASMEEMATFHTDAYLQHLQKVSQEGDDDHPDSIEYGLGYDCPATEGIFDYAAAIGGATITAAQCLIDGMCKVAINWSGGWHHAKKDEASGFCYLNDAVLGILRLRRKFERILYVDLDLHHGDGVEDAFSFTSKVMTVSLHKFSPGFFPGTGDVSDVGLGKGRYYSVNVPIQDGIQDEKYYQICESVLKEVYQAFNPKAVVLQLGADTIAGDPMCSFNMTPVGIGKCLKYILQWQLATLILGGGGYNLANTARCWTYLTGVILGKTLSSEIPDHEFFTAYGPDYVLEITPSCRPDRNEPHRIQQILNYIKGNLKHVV

HDAC5, sequence (Q9UQL6 656-1122): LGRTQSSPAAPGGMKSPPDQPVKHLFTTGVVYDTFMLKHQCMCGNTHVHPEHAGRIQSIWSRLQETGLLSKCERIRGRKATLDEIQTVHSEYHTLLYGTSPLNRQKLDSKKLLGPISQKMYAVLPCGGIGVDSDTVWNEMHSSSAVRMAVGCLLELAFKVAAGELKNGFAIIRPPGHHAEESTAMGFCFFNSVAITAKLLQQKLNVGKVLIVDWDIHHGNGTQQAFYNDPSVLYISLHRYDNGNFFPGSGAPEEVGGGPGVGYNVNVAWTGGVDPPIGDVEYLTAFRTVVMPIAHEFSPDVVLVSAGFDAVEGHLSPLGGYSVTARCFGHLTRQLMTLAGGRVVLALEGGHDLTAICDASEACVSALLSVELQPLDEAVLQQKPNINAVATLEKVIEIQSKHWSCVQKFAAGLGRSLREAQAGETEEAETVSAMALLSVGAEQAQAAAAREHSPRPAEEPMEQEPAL
HDAC1, sequence (Q13547 whole entry): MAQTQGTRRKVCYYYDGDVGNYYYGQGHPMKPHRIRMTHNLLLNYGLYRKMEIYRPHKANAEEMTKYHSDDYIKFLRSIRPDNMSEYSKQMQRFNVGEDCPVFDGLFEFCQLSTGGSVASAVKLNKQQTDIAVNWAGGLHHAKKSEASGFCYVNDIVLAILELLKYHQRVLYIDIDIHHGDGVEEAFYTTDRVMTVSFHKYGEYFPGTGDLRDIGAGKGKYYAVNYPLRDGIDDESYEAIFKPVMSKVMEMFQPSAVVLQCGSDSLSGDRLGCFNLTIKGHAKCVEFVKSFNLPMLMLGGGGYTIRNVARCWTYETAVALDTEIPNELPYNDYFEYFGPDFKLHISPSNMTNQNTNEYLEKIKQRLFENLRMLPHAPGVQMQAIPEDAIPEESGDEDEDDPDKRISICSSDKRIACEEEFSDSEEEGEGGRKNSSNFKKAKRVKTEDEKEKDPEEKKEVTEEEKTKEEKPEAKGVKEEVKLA

| Compound | IC50 (HDAC5) [nM] | IC50 (HDAC1) [nM] | IC50 (HDAC8) [nM] |
| --- | --- | --- | --- |
| O=C1CCC(c2ccccc2Cl)N1c1cc(F)c(-c2noc(C(F)(F)F)n2)cc1F (racemic) [Example 120, 5-(2-chlorophenyl)-1-(2,5-difluoro-4-(5-(trifluoromethyl)-1,2,4-oxadiazol-3-yl)phenyl)pyrrolidin-2-one] | 79 |  |  |
| O=C(NC(Cc1ccc(-c2noc(C(F)(F)F)n2)cn1)c1cccc(C(F)(F)F)c1)C1CCS(=O)(=O)CC1 (racemic) [Example 477, 1,1-dioxo-N-(2-{5-[5-(trifluoromethyl)-1,2,4-oxadiazol-3-yl]pyridin-2-yl}-1-[3-(trifluoromethyl)phenyl]ethyl)-llambda~6~-thiane-4-carboxamide] | 620 | 670 |  |
| CC(C)(C)CC(=O)NC(Cc1ccc(-c2noc(C(F)(F)F)n2)cn1)c1cccc(C(F)(F)F)c1 (racemic) [Example 481, 3,3-dimethyl-N-(2-{5-[5-(trifluoromethyl)-1,2,4-oxadiazol-3-yl]pyridin-2-yl}-1-[3-(trifluoromethyl)phenyl]ethyl)butanamide] | 710 | 1100 |  |
| O=C(NC(Cc1ccc(-c2noc(C(F)(F)F)n2)cn1)c1cccc(C(F)(F)F)c1)c1ccccc1 (racemic) [Example 486, N-(2-{5-[5-(trifluoromethyl)-1,2,4-oxadiazol-3-yl]pyridin-2-yl}-1-[3-(trifluoromethyl)phenyl]ethyl)benzamide] | 670 | 690 |  |
| O=C(NC(Cc1ccc(-c2noc(C(F)(F)F)n2)cn1)c1cccc(C(F)(F)F)c1)c1ccccn1 (racemic) [Example 488, N-(2-{5-[5-(trifluoromethyl)-1,2,4-oxadiazol-3-yl]pyridin-2-yl}-1-[3-(trifluoromethyl)phenyl]ethyl)pyridine-2-carboxamide] | 670 | 880 |  |
| O=S1(=O)CCC(S(=O)(=O)N(Cc2ccc(-c3noc(C(F)(F)F)n3)cc2)c2cccc(C(F)(F)F)c2)C1 (racemic) [Example 492, 1,1-dioxo-N-({4-[5-(trifluoromethyl)-1,2,4-oxadiazol-3-yl]phenyl}methyl)-N-[3-(trifluoromethyl)phenyl]-llambda~6~-thiolane-3-sulfonamide] | 390 | 1200 |  |
| O=C(N1CCOCC1)N(Cc1ncc(-c2noc(C(F)(F)F)n2)cn1)c1cccc(C(F)(F)F)c1 [Example 50, N-((5-(5-(trifluoromethyl)-1,2,4-oxadiazol-3-yl)pyrimidin-2-yl)methyl)-N-(3-(trifluoromethyl)phenyl)morpholine-4-carboxamide] | 820 | 240 |  |
| Fc1cc(-c2noc(C(F)(F)F)n2)ccc1COc1ccccc1 [Example 168, 3-(3-Fluoro-4-(phenoxymethyl)phenyl)-5-(trifluoromethyl)-1,2,4-oxadiazole] | 1100 | 15000 |  |
| CCNC(=O)NC(Cc1ccc(-c2noc(C(F)(F)F)n2)cn1)c1cccc(C(F)(F)F)c1 (stereo not shown) [Example 179, 1-Ethyl-3-(2-(5-(5-(trifluoromethyl)-1,2,4-oxadiazol-3-yl)pyridin-2-yl)-1-(3-(trifluoromethyl)phenyl)ethyl)urea] | 390 | 340 |  |
| COC(=O)NC(Cc1ccc(-c2noc(C(F)(F)F)n2)cn1)c1cccc(C(F)(F)F)c1 (stereo not shown) [Example 180] | 650 | 650 |  |
| Fc1ccccc1OCc1cc(-c2noc(C(F)(F)F)n2)ccn1 [Example 250, 2-[(2-fluorophenoxy)methyl]-4-[5-(trifluoromethyl)-1,2,4-oxadiazol-3-yl]pyridine] | 910 | 3100 |  |
| Fc1cc(COc2cccnn2)ccc1-c1noc(C(F)(F)F)n1 [Example 257, 3-({3-fluoro-4-[5-(trifluoromethyl)-1,2,4-oxadiazol-3-yl]phenyl}methoxy)pyridazine] | 200 | 6400 |  |
| COc1cncc(OCc2ccc(-c3noc(C(F)(F)F)n3)c(F)c2)c1 [Example 258, 3-({3-fluoro-4-[5-(trifluoromethyl)-1,2,4-oxadiazol-3-yl]phenyl}methoxy)-5-methoxypyridine] | 150 | 1200 |  |
| Fc1cc(COc2cnc3[nH]ccc3c2)ccc1-c1noc(C(F)(F)F)n1 [Example 259, 5-({3-fluoro-4-[5-(trifluoromethyl)-1,2,4-oxadiazol-3-yl]phenyl}methoxy)-1H-pyrrolo[2,3-b]pyridine] | 84 | 4200 |  |
| Fc1ccc(OCc2ccc(-c3noc(C(F)(F)F)n3)c(F)c2)cn1 [Example 260, 2-fluoro-5-({3-fluoro-4-[5-(trifluoromethyl)-1,2,4-oxadiazol-3-yl]phenyl}methoxy)pyridine] | 120 | 12000 |  |
| Fc1ccc2ccc(OCc3ccc(-c4noc(C(F)(F)F)n4)c(F)c3)nc2n1 [Example 261, 2-fluoro-7-({3-fluoro-4-[5-(trifluoromethyl)-1,2,4-oxadiazol-3-yl]phenyl}methoxy)-1,8-naphthyridine] | 24 | 850 |  |
| Fc1cc(COc2nnnc3ccccc23)ccc1-c1noc(C(F)(F)F)n1 [Example 262, 4-({3-fluoro-4-[5-(trifluoromethyl)-1,2,4-oxadiazol-3-yl]phenyl}methoxy)-1,2,3-benzotriazine] | 120 | 2900 |  |

| Compound | IC50 (HDAC5) [nM] | IC50 (HDAC1) [nM] | IC50 (HDAC8) [nM] |
| --- | --- | --- | --- |
| Cc1ccc(OCc2ccc(-c3noc(C(F)(F)F)n3)c(F)c2)nn1 [Example 263, 3-({3-fluoro-4-[5-(trifluoromethyl)-1,2,4-oxadiazol-3-yl]phenyl}methoxy)-6-methylpyridazine] | 240 | 5300 |  |
| NC(=O)c1cccc(OCc2ccc(-c3noc(C(F)(F)F)n3)c(F)c2)c1 [Example 264, 3-({3-fluoro-4-[5-(trifluoromethyl)-1,2,4-oxadiazol-3-yl]phenyl}methoxy)benzamide] | 90 | 2200 |  |
| Fc1cc(COc2cccc3c2CNCC3)ccc1-c1noc(C(F)(F)F)n1 [Example 265, 8-({3-fluoro-4-[5-(trifluoromethyl)-1,2,4-oxadiazol-3-yl]phenyl}methoxy)-1,2,3,4-tetrahydroisoquinoline] | 280 | 5600 |  |
| Cc1ccnnc1OCc1ccc(-c2noc(C(F)(F)F)n2)c(F)c1 [Example 266, 3-({3-fluoro-4-[5-(trifluoromethyl)-1,2,4-oxadiazol-3-yl]phenyl}methoxy)-4-methylpyridazine] | 250 | 6600 |  |
| NCc1cccc(OCc2ccc(-c3noc(C(F)(F)F)n3)c(F)c2)c1 [Example 267, 1-[3-({3-fluoro-4-[5-(trifluoromethyl)-1,2,4-oxadiazol-3-yl]phenyl}methoxy)phenyl]methanamine] | 200 | 1100 |  |
| Fc1cc(COc2nccc3nccn23)ccc1-c1noc(C(F)(F)F)n1 [Example 268, 5-({3-fluoro-4-[5-(trifluoromethyl)-1,2,4-oxadiazol-3-yl]phenyl}methoxy)imidazo[1,2-c]pyrimidine] | 120 | 2900 |  |
| Cc1cncc(OCc2ccc(-c3noc(C(F)(F)F)n3)c(F)c2)c1 [Example 269, 3-({3-fluoro-4-[5-(trifluoromethyl)-1,2,4-oxadiazol-3-yl]phenyl}methoxy)-5-methylpyridine] | 500 | 7100 |  |
| NCc1ccccc1OCc1ccc(-c2noc(C(F)(F)F)n2)c(F)c1 [Example 270, 1-[2-({3-fluoro-4-[5-(trifluoromethyl)-1,2,4-oxadiazol-3-yl]phenyl}methoxy)phenyl]methanamine] | 160 | 2300 |  |
| Fc1cc(COc2cccc3[nH]ncc23)ccc1-c1noc(C(F)(F)F)n1 [Example 271, 4-({3-fluoro-4-[5-(trifluoromethyl)-1,2,4-oxadiazol-3-yl]phenyl}methoxy)-1H-indazole] | 85 | 3700 |  |
| Fc1cc(COc2nc3cccnc3n2C2CC2)ccc1-c1noc(C(F)(F)F)n1 [Example 272, 3-cyclopropyl-2-({3-fluoro-4-[5-(trifluoromethyl)-1,2,4-oxadiazol-3-yl]phenyl}methoxy)-3H-imidazo[4,5-b]pyridine] | 31 | 630 |  |
| Cn1c(OCc2ccc(-c3noc(C(F)(F)F)n3)c(F)c2)nc2ncccc21 [Example 273, 2-({3-fluoro-4-[5-(trifluoromethyl)-1,2,4-oxadiazol-3-yl]phenyl}methoxy)-1-methyl-1H-imidazo[4,5-b]pyridine] | 28 | 720 |  |
| Cc1ncc(OCc2ccc(-c3noc(C(F)(F)F)n3)c(F)c2)cn1 [Example 274, 5-({3-fluoro-4-[5-(trifluoromethyl)-1,2,4-oxadiazol-3-yl]phenyl}methoxy)-2-methylpyrimidine] | 160 | 4000 |  |
| COc1ccc2cc(OCc3ccc(-c4noc(C(F)(F)F)n4)c(F)c3)nnc2c1 [Example 275, 3-({3-fluoro-4-[5-(trifluoromethyl)-1,2,4-oxadiazol-3-yl]phenyl}methoxy)-7-methoxycinnoline] | 87 | 860 |  |
| Fc1cc(COc2cnc(C3CC3)nc2)ccc1-c1noc(C(F)(F)F)n1 [Example 276, 2-cyclopropyl-5-({3-fluoro-4-[5-(trifluoromethyl)-1,2,4-oxadiazol-3-yl]phenyl}methoxy)pyrimidine] | 120 | 1500 |  |
| FC(F)(F)c1nc(-c2cnc(COc3ccc4ccccc4n3)nc2)no1 [Example 473, 2-({5-[5-(trifluoromethyl)-1,2,4-oxadiazol-3-yl]pyrimidin-2-yl}methoxy)quinoline] |  | 160 | 45000 |
| O=c1ccc2ccccc2n1Cc1ncc(-c2noc(C(F)(F)F)n2)cn1 [Example 474, 1-({5-[5-(trifluoromethyl)-1,2,4-oxadiazol-3-yl]pyrimidin-2-yl}methyl)quinolin-2(1H)-one] |  | 220 | 6000 |
| O=C1CCc2cccc(C(F)(F)F)c2N1Cc1ccc(-c2noc(C(F)(F)F)n2)cn1 [Example 475, 8-(trifluoromethyl)-1-({5-[5-(trifluoromethyl)-1,2,4-oxadiazol-3-yl]pyridin-2-yl}methyl)-3,4-dihydroquinolin-2(1H)-one] |  | 880 | 5600 |
